{
  "source": "patent US20250154193A1",
  "about": "“STEROID COMPOUND, AND PREPARATION METHOD THEREFOR AND APPLICATION THEREOF” (CHOLESGEN (SHANGHAI) CO., LTD., priority 2022, published 2025)",
  "key": {"[1]": {"experiment": "Liver microsomal metabolic stability assay", "assay_type": "in vitro ADME", "conditions": "rat liver microsomes, NADPH, 37° C., 0-60 minutes; read-out: Rat microsomal metabolic half-life (t1/2)", "procedure": "PBS solution (100 mM), MgCl2 solution (100 mM), and NADPH solution (20 mM) were prepared respectively. Compound and testosterone (positive control) stock solutions were then prepared with dimethyl sulfoxide (DMSO), diluted to 100 µM with methanol for sample incubation, and stored at −10 to −30° C. 12.5 μL of rat liver microsomes (purchased from XenoTech, Cat. No.: R1000, Lot No.: 1310030, specification: 20 mg/mL), 432.5 µL of PBS solution (100 mM), 25 µL of NADPH solution (20 mM), and 25 μL of MgCl2 solution (100 mM) were added to a 96-well plate, mixed well, and pre-incubated at 37° C. for 5 minutes. 5 µL of substrate (test compound) solution was added to start the reaction. At specified time points of 0, 5, 15, 30, 45, and 60 minutes (0 and 60 minutes for the negative control group), 50 µL of the incubated samples were added to a stop plate containing 100 µL of ice-cold stop solution, vortexed for 1 minute to inactivate the reaction, and stored at −60 to −90° C. for subsequent analysis. Sample analysis of the test compound and the control compound testosterone was performed using LC-MS/MS method. Chromatographic peaks were integrated, calculated, and processed using Analyst software. Semi-quantitative analysis was performed for both the test compound and the control compound testosterone by calculating peak area ratios."}, "Ldlr−/− mice": {"system": "Ldlr−/− mice", "experiment": "AMLN diet-induced fatty liver model: liver tissue section analysis", "assay_type": "in vivo", "conditions": "30 mg/kg/day, 8 weeks", "procedure": "Hematoxylin-eosin staining: The extracted liver was fixed in 4% paraformaldehyde at 4° C., embedded in paraffin, sectioned using a paraffin microtome (Leica RM2235) with a section thickness of […], dewaxed, rehydrated, and stained with Hematoxylin-eosin staining kits ([…]. 6,765,001, 6,766,010, Thermo Scientific). The images were captured with an Olympus VS 120 glass microscope, and quantified using ImageJ software. Oil Red 0 staining: The liver was embedded in OCT embedding medium (Leica), sectioned to a thickness of 7 μm using a cryostat microtome (Leica CM1950), stained with Oil Red 0 (00625, Sigma). The images were captured with an Olympus VS 120 glass microscope, and quantified using ImageJ software. Sirius Red collagen staining: Liver paraffin sections were dewaxed, rehydrated, and stained with Sirius Red staining kit (ab150681, Abcam) according to the manufacturer's instructions. Immunofluorescence staining: The liver was embedded in OCT embedding medium (Leica) and sectioned to a thickness of 7 μm using a cryostat microtome (Leica CM1950). Cryostat sections were stained with anti-F4/80 rat monoclonal antibody (14-4801-85, Invitrogen, 1:100) and Alexa Fluor 488-conjugated goat anti-rat IgG secondary antibody (A-11006, Invitrogen, 1:500), and the nuclei were specifically stained with DAPI (Sigma) 30. After staining and sealing, the images were captured using a spinning disk confocal microscope (Nikon CSU-W1 SoRa), and quantified using ImageJ software. Polarized light imaging of cholesterol crystals: Cryostat sections were stained with F4/80 and DAPI. The images were captured using a spinning disk confocal microscope (Nikon CSU-W1 SoRa) equipped with a polarized light filter, and quantified using ImageJ software. Male C57BL/6J mice and male Ldlr^−/− mice (TOO1464, Jiangsu GemPharmatech Co., Ltd.) at 8 weeks of age were purchased, grouped, fed with different diets, and treated with different drugs. The mice were randomly divided into 4 groups with 8 to 9 mice in each group: One group consisted of C57BL/6J wild-type mice, which was the chow diet (CD) vehicle control group. The other three groups consisted of Ldlr^−/− knockout mice, including chow diet (CD) vehicle control group, AMLN diet (containing […], 22% fructose, and 2% cholesterol) vehicle control group, and AMLN diet combined with 25-hydroxylanosterol administration group (25-hydroxylano sterol was administered at a concentration of 30 mg/kg/day). The mice in four groups were intragastrically administered once a day, during which the changes in food intake and body weight of the mice in different treatment groups were counted. After 8 weeks, blood and liver samples were collected from the mice to analyze blood lipids, liver lipids, and liver damage phenotypes. Furthermore, we performed various staining or immunohistochemical procedures on liver tissue sections from the mice in each group to analyze the phenotypic changes in hepatic lipid accumulation and fatty liver. […] FIGS. 14 to 18 show the results of Oil Red O staining and quantification of liver sections of mice: 25-hydroxylanosterol reduced lipid droplets in the liver. FIGS. 19 to 23 show the results of Sirius Red staining and quantification of liver sections of mice: 25-hydroxylanosterol reduced fibrosis in the liver. FIGS. 24 to 29 show the results of F4/80 immunostaining and quantification of liver sections of mice as well as the results of imaging and quantification of polarized light imaging indicating cholesterol crystals: 25-hydroxylanosterol reduced the aggregation of Kupffer cells and formation of cholesterol crystals in the liver. In FIGS. 9 to 29, quantitative analysis was performed using ImageJ software, and data are represented as mean±standard deviation. P values were calculated using one-way ANOVA; * indicates P<0.05; ** indicates P<0.01; *** indicates P<0.001."}},
  "data": [
    {"smiles": "C[C@H](CCCC(C)(C)O)[C@H]1CC[C@@]2(C)C3=C(CC[C@]12C)[C@@]1(C)CC[C@H](O)C(C)(C)[C@@H]1CC3", "note": "[compound 68, (1R,3aR,5aR,7S,9aS,11aR)-1-[(2R)-6-hydroxy-6-methylheptan-2-yl]-3a,6,6,9a,11a-pentamethyl-2,3,3a,4,5,5a,6,7,8,9,9a,10,11,11a-tetradecahydro-1H-cyclopenta[1,2-a]phenanthren-7-ol]", "values": [
      {"measurement": "half-life at 1 µM", "setting": "[1]", "result": 8.36, "unit": "min"},
      {"measurement": "crown-like structure formed by Kupffer cells (F4/80 immunostaining)", "setting": "Ldlr−/− mice", "result": "significantly reduced"},
      {"measurement": "fibrotic phenotype of collagen fiber formation in liver sections (Sirius Red)", "setting": "Ldlr−/− mice", "result": "significantly reduced"},
      {"measurement": "number of cholesterol crystals in liver sections (polarized light imaging)", "setting": "Ldlr−/− mice", "result": "significantly reduced"},
      {"measurement": "accumulation of lipid droplets of neutral lipids in the liver (Oil Red O staining)", "setting": "Ldlr−/− mice; vs control group", "result": "significantly reduced"},
      {"measurement": "macrovesicular lipid droplets and vesicular degenerated hepatocytes in the liver (HE staining)", "setting": "Ldlr−/− mice; vs control group", "result": "significantly reduced"},
      {"measurement": "NAFLD activity scores", "setting": "Ldlr−/− mice; HE staining of liver sections", "result": "significantly reduced"}
    ]}
  ]
}
